# From patent US20250276989A1, “GPR40 AGONISTS” (Kallyope, Inc., priority 2020, published 2025)
# Target: T1, human GPR40 (Homo sapiens, UniProt O14842)
# T1 construct: host or cells: CHO-K1
# Test: Inositol phosphate accumulation assay (IP1 HTRF) in CHO-K1 cells expressing human GPR40
# Format: cell-based
# Conditions: 90 min stimulation
# Description: CHO-K1 cells expressing human GPR40 were purchased from DiscoverX (95-1005C2). HEK293 cells expressing mouse FFAR1 were prepared using a mouse FFAR1 carrying plasmid purchased from OriGene Technologies (MR222997). The cells were transfected using Lipofectamine 2000 using manufacturer instructions and stable cell line was established from a single cell using geneticine selection. Assay ready frozen (ARF) cells were prepared and used throughout the study.
# The assay was performed in a 384-well plate format using IP1 assay kit from Cis-Bio. ARF cells expressing FFAR1 (mouse and human) were thawed, washed and then plated in the appropriate medium (F12 based medium for CHO hFFAR1 and DMEM based medium for HEK293 mFFAR1—both were supplemented with 10% FBS and penicillin/streptomycin). 20 μL of 3.5×10^5 cells/mL were plated on a Poly D-Lysine coated 384-well white plate. The cells were then incubated for 16 hr at 37° C./5% CO2. After 16 hr the medium was removed and 15 μL of stimulation buffer containing the test compounds was added to the cells. The plates were then incubated for 90 min at 37° C./5% CO2. 5 μL of detection buffer (prepared as described in the IP-one kit) was added to each well and the plates were incubated at RT for 1 hr.
# […] was measured using ClarioSTAR plate reader, calculating the ratio between emissions at 665 nm and 620 nm (HTRF ratio). HTRF ratio for positive (Max) and negative (Min) controls were used to normalize HTRF data and generate values for % activity. EC50 and Max activity values were determined using a standard 4-parameter fit.
# T1 sequence (O14842 whole entry): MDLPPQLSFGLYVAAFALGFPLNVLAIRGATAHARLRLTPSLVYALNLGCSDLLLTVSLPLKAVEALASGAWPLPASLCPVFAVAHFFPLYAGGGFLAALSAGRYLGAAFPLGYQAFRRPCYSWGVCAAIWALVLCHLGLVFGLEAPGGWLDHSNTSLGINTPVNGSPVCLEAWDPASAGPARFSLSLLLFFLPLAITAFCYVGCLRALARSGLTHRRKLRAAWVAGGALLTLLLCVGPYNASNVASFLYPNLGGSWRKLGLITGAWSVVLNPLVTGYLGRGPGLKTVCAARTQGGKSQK
row,EC50,Structure (SMILES)
1,250 to 1000 nM,"CC[C@H](Cc1cccc(OCC2CCN(c3cc(OC)ccc3CCCC(C)(C)C)CC2)c1)P(C)(=O)O [Compound 17, ((R)-1-(3-((1-(2-(4,4-dimethylpentyl)-5-methoxyphenyl)piperidin-4-yl)methoxy)phenyl)butan-2-yl)(methyl)phosphinic acid]"
2,250 to 1000 nM,"CC[C@@H](Cc1cccc(OCC2CCN(c3cc(OC)ccc3CCCC(C)(C)C)CC2)c1)P(C)(=O)O [Compound 18, ((S)-1-(3-((1-(2-(4,4-dimethylpentyl)-5-methoxyphenyl)piperidin-4-yl)methoxy)phenyl)butan-2-yl)(methyl)phosphinic acid]"
3,250 to 1000 nM,"COc1ccc(CCCC(C)(C)C)c(N2CCC(COc3cc([C@H](C)CP(C)(=O)O)ccn3)CC2)c1 [Compound 13, ((S)-2-(2-((1-(2-(4,4-dimethylpentyl)-5-methoxyphenyl)piperidin-4-yl)methoxy)pyridin-4-yl)propyl)(methyl)phosphinic acid]"
4,> 1000 nM,"COc1ccc(F)c([C@H]2CC[C@H](COc3cccc(C(CS(=O)(=O)O)C4CC4)c3)CC2)c1 (stereo partly drawn) [Compound 3, 2-cyclopropyl-2-(3-(((trans)-4-(2-fluoro-5-methoxyphenyl)cyclohexyl)methoxy)phenyl)ethanesulfonic acid]"
5,50 to 250 nM,"COc1ccc(CCCC(C)(C)C)c(N2CCC(COc3cccc([C@@H](C)CP(C)(=O)O)c3)CC2)c1 [Compound 14, ((R)-2-(3-((1-(2-(4,4-dimethylpentyl)-5-methoxyphenyl)piperidin-4-yl)methoxy)phenyl)propyl)(methyl)phosphinic acid]"
6,250 to 1000 nM,"COc1ccc(CCCC(C)(C)C)c(N2CCC(COc3cccc([C@H](C)CP(=O)(O)O)c3)CC2)c1 [Compound 19, (S)-(2-(3-((1-(2-(4,4-dimethylpentyl)-5-methoxyphenyl)piperidin-4-yl)methoxy)phenyl)propyl)phosphonic acid]"
7,≤ 50 nM,"COc1ccc(CCCC(C)(C)C)c(N2CCC(COc3cc([C@@H](CP(C)(=O)O)C4CC4)ccn3)CC2)c1 [Compound 11, ((S)-2-cyclopropyl-2-(2-((1-(2-(4,4-dimethylpentyl)-5-methoxyphenyl)piperidin-4-yl)methoxy)pyridin-4-yl)ethyl)(methyl)phosphinic acid]"
8,> 1000 nM,"COc1ccc(F)c([C@H]2CC[C@H](COc3cccc(C(CP(=O)(O)O)C4CC4)c3)CC2)c1 (stereo partly drawn) [Compound 2, (2-cyclopropyl-2-(3-(((trans)-4-(2-fluoro-5-methoxyphenyl)cyclohexyl)methoxy)phenyl)ethyl)phosphonic acid]"
9,≤ 50 nM,"COc1ccc(F)c([C@H]2CC[C@H](COc3cccc(C(CP(C)(=O)O)C4CC4)c3)CC2)c1 (single isomer, unassigned) [Compound 7, (2-cyclopropyl-2-(3-(((trans)-4-(2-fluoro-5-methoxyphenyl)cyclohexyl)methoxy)phenyl)ethyl)(methyl)phosphinic acid]"
10,> 1000 nM,"COc1ccc(F)c([C@H]2CC[C@H](COc3cccc(C(C4CC4)C(C)P(=O)(O)O)c3)CC2)c1 (stereo partly drawn) [Compound 4, (1-cyclopropyl-1-(3-(((trans)-4-(2-fluoro-5-methoxyphenyl)cyclohexyl)methoxy)phenyl)propan-2-yl)phosphonic acid]"
11,> 1000 nM,"COc1ccc(CCCC(C)(C)C)c(N2CCC(COc3cccc(CC(C)P(=O)(O)O)c3)CC2)c1 (stereo not drawn) [Compound 16, (1-(3-((1-(2-(4,4-dimethylpentyl)-5-methoxyphenyl)piperidin-4-yl)methoxy)phenyl)propan-2-yl)phosphonic acid]"
12,≤ 50 nM,"COc1ccc(CCCC(C)(C)C)c(N2CCC(COc3cc([C@@H](C)CP(C)(=O)O)ccn3)CC2)c1 [Compound 12, ((R)-2-(2-((1-(2-(4,4-dimethylpentyl)-5-methoxyphenyl)piperidin-4-yl)methoxy)pyridin-4-yl)propyl)(methyl)phosphinic acid]"
13,≤ 50 nM,"COc1ccc(CCCC(C)(C)C)c(N2CCC(COc3cccc([C@@H](CP(C)(=O)O)C4CC4)c3)CC2)c1 [Compound 10, ((S)-2-cyclopropyl-2-(3-((1-(2-(4,4-dimethylpentyl)-5-methoxyphenyl)piperidin-4-yl)methoxy)phenyl)ethyl)(methyl)phosphinic acid]"
14,≤ 50 nM,"COc1ccc(CCCC(C)(C)C)c(N2CCC(COc3cccc([C@H](C)CP(C)(=O)O)c3)CC2)c1 [Compound 15, ((S)-2-(3-((1-(2-(4,4-dimethylpentyl)-5-methoxyphenyl)piperidin-4-yl)methoxy)phenyl)propyl)(methyl)phosphinic acid]"
15,50 to 250 nM,"COc1ccc(F)c([C@H]2CC[C@H](COc3cccc(C(CP(C)(=O)O)C4CC4)c3)CC2)c1 (single isomer, unassigned) [Compound 8, (2-cyclopropyl-2-(3-(((trans)-4-(2-fluoro-5-methoxyphenyl)cyclohexyl)methoxy)phenyl)ethyl)(methyl)phosphinic acid]"
16,≤ 50 nM,"COc1ccc(F)c([C@H]2CC[C@H](COc3cccc(C(CP(C)(=O)O)C4CC4)c3)CC2)c1 (single isomer, unassigned) [Compound 5, (2-cyclopropyl-2-(3-(((trans)-4-(2-fluoro-5-methoxyphenyl)cyclohexyl)methoxy)phenyl)ethyl)(methyl)phosphinic acid]"
17,≤ 50 nM,"COc1ccc(F)c([C@H]2CC[C@H](COc3cc([C@@H](CP(C)(=O)O)C4CC4)ccn3)CC2)c1 [Compound 9, ((S)-2-cyclopropyl-2-(2-(((trans)-4-(2-fluoro-5-methoxyphenyl)cyclohexyl)methoxy)pyridin-4-yl)ethyl)(methyl)phosphinic acid]"
18,50 to 250 nM,"COc1ccc(F)c([C@H]2CC[C@H](COc3cccc(C(CP(C)(=O)O)C4CC4)c3)CC2)c1 (single isomer, unassigned) [Compound 6, (2-cyclopropyl-2-(3-(((trans)-4-(2-fluoro-5-methoxyphenyl)cyclohexyl)methoxy)phenyl)ethyl)(methyl)phosphinic acid]"
19,> 1000 nM,"COc1ccc(CCCC(C)(C)C)c(N2CCC(COc3cccc([C@@H](C)CP(=O)(O)O)c3)CC2)c1 [Compound 20, (R)-(2-(3-((1-(2-(4,4-dimethylpentyl)-5-methoxyphenyl)piperidin-4-yl)methoxy)phenyl)propyl)phosphonic acid]"

row,Structure (SMILES),EC50
1,"COc1ccc(F)c([C@H]2CC[C@H](COc3cccc(C(CP(=O)(O)OC)C4CC4)c3)CC2)c1 (stereo partly drawn) [Compound 1, methyl hydrogen (2-cyclopropyl-2-(3-(((trans)-4-(2-fluoro-5-methoxyphenyl)cyclohexyl)methoxy)phenyl)ethyl)phosphonate]",250 to 1000 nM

# Test system: not listed separately
# Test: In vivo plasma levels in mice
# Conditions: male C57BL/6J mice, 30 mg/kg oral gavage, 2 h post-dose; total exposure x free fraction from plasma protein binding
# Description: Male C57BL/6J mice 10-12 weeks old were dosed with test article (30 mg/kg) or vehicle by oral gavage. Animals were euthanized with carbon dioxide at 2 h or 5 h post dose. Blood was collected for measurement of plasma concentrations of test article. Unbound exposure was calculated by multiplying the measured total exposure by the free fraction as assessed from plasma protein binding.
# Plasma protein binding to isotonic phosphate buffer (PBS) containing 10% C57 BL/6 mouse plasma was determined using equilibrium dialysis of plasma spiked with test article (2 μM) against a dialysis buffer (100 mM sodium phosphate and 150 mM NaCl). At the end of the dialysis (4 hr), aliquots of the plasma and buffer were processed by protein precipitation for LC-MS/MS analysis to quantitate the test article.
# Results for exemplary compounds (total exposure in plasma and unbound exposure in plasma; ratio of EC50 to unbound exposure in plasma) are shown in Table 2.
row,"Exposure (nM) (unbound), unbound exposure in plasma",Structure (SMILES)
1,2.5 nM,"COc1ccc(F)c([C@H]2CC[C@H](COc3cccc(C(CP(C)(=O)O)C4CC4)c3)CC2)c1 (single isomer, unassigned) [Compound 5, (2-cyclopropyl-2-(3-(((trans)-4-(2-fluoro-5-methoxyphenyl)cyclohexyl)methoxy)phenyl)ethyl)(methyl)phosphinic acid]"

# Same assay, conditions: male C57BL/6J mice, 30 mg/kg oral gavage, 5 h post-dose; total exposure x free fraction from plasma protein binding
row,"Exposure (nM) (unbound), unbound exposure in plasma",Structure (SMILES)
1,2.3 nM,"COc1ccc(F)c([C@H]2CC[C@H](COc3cc([C@@H](CP(C)(=O)O)C4CC4)ccn3)CC2)c1 [Compound 9, ((S)-2-cyclopropyl-2-(2-(((trans)-4-(2-fluoro-5-methoxyphenyl)cyclohexyl)methoxy)pyridin-4-yl)ethyl)(methyl)phosphinic acid]"

# Same assay, conditions: mouse, plasma; male C57BL/6J mice, 30 mg/kg oral gavage, 2 h post-dose; read-out: Exposure (nM), total exposure in plasma
row,concentration at 2 h,Structure (SMILES)
1,8300 nM,"COc1ccc(F)c([C@H]2CC[C@H](COc3cccc(C(CP(C)(=O)O)C4CC4)c3)CC2)c1 (single isomer, unassigned) [Compound 5, (2-cyclopropyl-2-(3-(((trans)-4-(2-fluoro-5-methoxyphenyl)cyclohexyl)methoxy)phenyl)ethyl)(methyl)phosphinic acid]"

# Same assay, conditions: mouse, plasma; male C57BL/6J mice, 30 mg/kg oral gavage, 5 h post-dose; read-out: Exposure (nM), total exposure in plasma
row,concentration at 5 h,Structure (SMILES)
1,1160 nM,"COc1ccc(F)c([C@H]2CC[C@H](COc3cc([C@@H](CP(C)(=O)O)C4CC4)ccn3)CC2)c1 [Compound 9, ((S)-2-cyclopropyl-2-(2-(((trans)-4-(2-fluoro-5-methoxyphenyl)cyclohexyl)methoxy)pyridin-4-yl)ethyl)(methyl)phosphinic acid]"
